{"source": "patent US4701521A", "about": "“Method of effecting cellular uptake of molecules” (The Trustees of Boston University, priority 1979, dated 1987)", "key": {"[1]": {"system": "L-929 fibroblasts", "test": "Cytocidal effects of 6-MPRP and 6-MPRP-PLL", "assay_type": "cell-based, mouse", "description": "[…] After exposure to the free or conjugated drug, the monolayers were kept growing for 2 days in standard growth medium, at which time no cytocidal effect could be detected."}, "[2]": {"system": "L929 fibroblast cells", "test": "Cellular uptake of HRP and conjugates as cell-associated peroxidase activity", "assay_type": "cell-based, mouse", "description": "The rate of color development measured at 460 nm (ΔA460 nm /min) was used as an indication of enzymatic activity, and the enzymatic activity measured in the cell extract was used as an expression of cellular uptake.\nFollowing exposure to HRP, or one of its two conjugates, the monolayers of L 929 mouse fibroblasts were washed and detached and the detached cells were washed as described in Example 3. The cells were then lysed and the cell extract used for measurement of enzymatic activity of HRP as described in Example 6."}, "[3]": {"system": "L929 fibroblasts", "test": "Cytochemical localization of HRP reaction product (light and electron microscopy)", "assay_type": "cell-based, mouse"}, "[4]": {"system": "BHK (DMN^ts) baby hamster kidney cell line", "settings": "for Cellular Uptake in 60 min.: 3 μg/ml", "method": "This experiment was done with a baby hamster kidney cell line (BHK) transformed by exposure to dimethylnitrosamine (DMN), growing with a non-malignant phenotype at 32° C. and a malignant phenotype at 38.5° C. This temperature-sensitive mutant line, called BHK (DMN^ts) was described by G. DeMayorca et al. Proc. Natl. Acad. Sci U.S.A., 70, 46-49 (1973). The cells were grown as monolayers in Dulbecco's high glucose medium. The transition from normal to transformed phenotype requires 3 to 4 population doublings or approximately 56 hours of growth at 38.5° C. The reversion to the normal, non-malignant phenotype likewise require 3 to 4 population doublings or approximately 112 hours of growth at 32° C. […] At time 0, the growth media of the confluent monolayers were replaced by serum free medium prewarmed to 37° C. and containing 3 μg/ml radioiodinated polymer. The monolayers were then incubated for 60 min. at 37° C."}, "[5]": {"system": "Sarcoma S-180 monolayers", "settings": "for Uptake, 1-min / Uptake, 60-min: 3 μg/ml ^125 I-PLL, 37° C.; for Uptake, 60-min (Corrected for Concentration of 79 nM): assuming uptake linear with concentration", "description": "Poly-L-lysines of three different average molecular weights, i.e., 38,000, 115,000 and 230,000, were radio-iodinated using the Bolton-Hunter Reagent. See Bolton, A. E. and Hunter, W. M., Biochem J., 133, pp 529-38 (1973)."}, "[6]": {"system": "variant of the P 1798 lymphosarcoma, steroid-resistant, presumed MTX-sensitive", "test": "Antitumor effect (tumor weight), steroid-resistant variant", "assay_type": "in vivo, BALB/c mice", "settings": "for Mean Tumor Weight: Mean ± SEM", "description": "The inoculation developed into a palpable tumor within 7-8 days and killed the animal on the average within 14 days. Following inoculation, mice were divided into 4 groups of 4 or 5 mice.\nTreatment consisted of one daily intravenous injection for 4 consecutive days, and was begun on Day 11 and Day 12 post-inoculation in experiment number 1 and 2 respectively. All animals were sacrificed one day after the last injection."}, "[7]": {"settings": "Normal phenotype, PLL MW 125,000, PDL MW 130,000"}}, "note": "Read-outs that look alike come from different tables or passages of the source.", "data": [{"compound": "O=P(O)(O)OC[C@H]1O[C@@H](n2cnc3c(=S)[nH]cnc32)[C@H](O)[C@@H]1O", "note": "[6-MPRP, 6-mercaptopurine ribosylphosphate]", "values": [{"measurement": "growth inhibition, drug present for the duration of the experiment", "setting": "[1]; 2×10^-6 M", "result": "both compounds had inhibiting effects"}, {"measurement": "cell growth after subculture and 7 additional days", "setting": "[1]; 1 h exposure to combination of free 6-MPRP (1×10^-5 M) and free PLL", "result": "grew at a rate undistinguichable from that of controls"}]}, {"compound": "horseradish peroxidase [HRP]", "values": [{"measurement": "Cell-associated peroxidase activity", "setting": "[2]; Example 6, enzyme concentration in medium 150 μg/ml", "result": "0.14 ΔA460 nm /min/mg cell protein"}, {"measurement": "Cell-associated peroxidase activity", "setting": "[2]; Example 6, enzyme concentration in medium 1500 μg/ml", "result": "1.55 ΔA460 nm /min/mg cell protein"}, {"measurement": "Cell-associated peroxidase activity", "setting": "[2]; Example 10, 60-minute exposure, 1.5 μg/ml in medium", "result": "0 ΔA460 nm /min/mg cell protein"}, {"measurement": "Cell-associated peroxidase activity", "setting": "[2]; Example 10, 60-minute exposure, 15 μg/ml in medium", "result": "0 ΔA460 nm /min/mg cell protein"}, {"measurement": "staining of HRP reaction products, light microscopy", "setting": "[3]; 60' exposure, HRP 150 μg/ml, HRP-PLL 1.5, 5 and 15 μg/ml", "result": "minimal staining"}, {"measurement": "HRP reaction product, electron microscopy", "setting": "[3]; HRP at 100-time greater concentration than HRP-PLL", "result": "minimal amounts of stained reaction product"}]}, {"compound": "poly-D-lysine [PDL]", "values": [{"measurement": "Transformed/Normal (uptake ratio)", "setting": "[4]", "result": 1}, {"measurement": "Cellular Uptake in 60 min.", "setting": "[4]; [7]", "result": 685, "unit": "ng/mg cell protein"}, {"measurement": "Cellular Uptake in 60 min.", "setting": "[4]; Transformed phenotype", "result": 680, "unit": "ng/mg cell protein"}]}, {"compound": "poly-L-lysine [PLL (MW 38,000)]", "values": [{"measurement": "Uptake, 1-min", "setting": "[5]", "result": 18.8, "unit": "ng/mg cell protein"}, {"measurement": "Uptake, 60-min", "setting": "[5]", "result": 349.4, "unit": "ng/mg cell protein"}, {"measurement": "Uptake, 60-min (Corrected for Concentration of 79 nM)", "setting": "[5]", "result": 349, "unit": "ng/mg cell protein"}]}, {"compound": "poly-L-lysine [PLL (MW 115,000)]", "values": [{"measurement": "Uptake, 1-min", "setting": "[5]", "result": 112.3, "unit": "ng/mg cell protein"}, {"measurement": "Uptake, 60-min", "setting": "[5]", "result": 513.3, "unit": "ng/mg cell protein"}, {"measurement": "Uptake, 60-min (Corrected for Concentration of 79 nM)", "setting": "[5]", "result": 1717, "unit": "ng/mg cell protein"}]}, {"compound": "poly-L-lysine [PLL (MW 250,000)]", "values": [{"measurement": "Uptake, 1-min", "setting": "[5]", "result": 153.7, "unit": "ng/mg cell protein"}, {"measurement": "Uptake, 60-min", "setting": "[5]", "result": 695.4, "unit": "ng/mg cell protein"}, {"measurement": "Uptake, 60-min (Corrected for Concentration of 79 nM)", "setting": "[5]", "result": 4209, "unit": "ng/mg cell protein"}]}, {"compound": "poly-L-lysine [PLL]", "values": [{"measurement": "% of Controls (tumor weight)", "setting": "[6]; Experiment No. 1", "result": 113, "unit": "%"}, {"measurement": "Mean Tumor Weight", "setting": "[6]; Experiment No. 1, daily i.v. 4 days from Day 11", "result": "6.05 ± 0.52", "unit": "g"}, {"measurement": "% of Controls (tumor weight)", "setting": "[6]; Experiment No. 2", "result": 102, "unit": "%"}, {"measurement": "Mean Tumor Weight", "setting": "[6]; Experiment No. 2, daily i.v. 4 days from Day 12", "result": "6.13 ± 0.31", "unit": "g"}, {"measurement": "Transformed/Normal (uptake ratio)", "setting": "[4]", "result": 1.43}, {"measurement": "Cellular Uptake in 60 min.", "setting": "[4]; [7]", "result": 525, "unit": "ng/mg cell protein"}, {"measurement": "Cellular Uptake in 60 min.", "setting": "[4]; Transformed phenotype", "result": 750, "unit": "ng/mg cell protein"}]}]}
